Results from patent publication US9073876B2, “Flap modulators” (JANSSEN PHARMACEUTICA NV, priority 2013, dated 2015).
Where a name gives a salt, the structure may show the parent alone.

Assays:
human FLAP = human FLAP (Homo sapiens (Human), UniProt P20292); experiment: FLAP binding assay (HTRF); conditions: human FLAP-containing membranes, HTRF format; average of two assay plates, duplicates; read-out: FLAP Binding wild type HTRF Ki
How it was run: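 Read-out is the HTRF ratio. Each reported figure averages two assay plates on which samples were tested in duplicate.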

[1] = test system: leukotriene pathway in human whole blood (LTB4 levels); experiment: Human whole blood assay (LTB4); type: cell-based; conditions: human whole blood diluted 1:1 in RPMI, stimulated with calcium ionophore A23187; single replicate
How it was run: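 Compounds are pre-incubated 15 min at 37° Celsius in RPMI-diluted (1:1) heparinised whole blood before a 30 min A23187 stimulus (7 μg/mL). Plasma LTB4 is read by immunoassay kit, with IC50 calculated from a 4-parameter equation.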

Sequence of human FLAP (P20292 whole entry): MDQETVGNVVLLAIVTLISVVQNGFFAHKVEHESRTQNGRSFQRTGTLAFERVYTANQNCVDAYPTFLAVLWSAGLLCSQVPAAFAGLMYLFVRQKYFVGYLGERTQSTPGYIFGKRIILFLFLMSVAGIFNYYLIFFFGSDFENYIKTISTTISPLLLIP

SMILES	Ki (human FLAP)	IC50 [1]
N#Cc1cc(Oc2c(C3CCC3)ccc(-c3cnc(N)cn3)c2F)ccn1 [Example 109, 4-[3-(5-Aminopyrazin-2-yl)-6-cyclobutyl-2-fluorophenoxy]pyridine-2-carbonitrile]	8.9 nM	308 nM
N#Cc1cccnc1Oc1c(C2CCC2)ccc(-c2cnc(N)cn2)c1F [Example 110, 2-[3-(5-Aminopyrazin-2-yl)-6-cyclobutyl-2-fluorophenoxy]pyridine-3-carbonitrile]	2.4 nM	52.2 nM
N#Cc1cccc(Oc2c(C3CCC3)ccc(-c3cnc(N)cn3)c2F)n1 [Example 111, 6-[3-(5-Aminopyrazin-2-yl)-6-cyclobutyl-2-fluorophenoxy]pyridine-2-carbonitrile]	1.9 nM	65.4 nM
N#Cc1ncccc1Oc1c(C2CCC2)ccc(-c2cnc(N)cn2)c1F [Example 112, 3-[3-(5-Aminopyrazin-2-yl)-6-cyclobutyl-2-fluorophenoxy]pyridine-2-carbonitrile]	14.8 nM	181 nM
Nc1cnc(-c2ccc(C3CCC3)c(Oc3ccc(C(F)(F)F)cn3)c2F)cn1 [Example 113, 5-(4-Cyclobutyl-2-fluoro-3-{[5-(trifluoromethyl)pyridin-2-yl]oxy}phenyl)pyrazin-2-amine]	27 nM	608 nM
Nc1cnc(-c2ccc(C3CCC3)c(Oc3ccc(S(F)(F)(F)(F)F)cc3)c2F)cn1 [Example 115, 5-{4-Cyclobutyl-2-fluoro-3-[4-(pentafluoro-lambda~6~- sulfanyl)phenoxy]phenyl}pyrazin-2-amine]	297 nM	1110 nM
Nc1cnc(-c2ccc(C3CCC3)c(Oc3ncccn3)c2F)cn1 [Example 118, 5-[4-Cyclobutyl-2-fluoro-3-(pyrimidin-2-yloxy)phenyl]pyrazin-2-amine]	10.5 nM	65.7 nM
Nc1cnc(-c2ccc(C3CCC3)c(Oc3nccc(N)n3)c2F)cn1 [Example 119, 2-[3-(5-Aminopyrazin-2-yl)-6-cyclobutyl-2-fluorophenoxy]pyrimidin-4-amine]	6 nM	26.3 nM
Nc1cnc(-c2ccc(C3CCC3)c(Oc3ncccc3Cl)c2F)cn1 [Example 122, 5-{3-[(3-Chloropyridin-2-yl)oxy]-4-cyclobutyl-2-fluorophenyl}pyrazin-2-amine]	4 nM	460 nM
CS(=O)(=O)c1ccc(Oc2c(C3CCC3)ccc(-c3cnc(N)cn3)c2F)c(Cl)c1 [Example 123, 5-{3-[2-Chloro-4-(methylsulfonyl)phenoxy]-4-cyclobutyl-2-fluorophenyl}pyrazin-2-amine]	7 nM	4480 nM
Nc1cnc(-c2ccc(C3CCC3)c(Oc3ccnc(C(F)(F)F)n3)c2F)cn1 [Example 124, 5-(4-Cyclobutyl-2-fluoro-3-{[2-(trifluoromethyl)pyrimidin-4-yl]oxy}phenyl)pyrazin-2-amine]	3 nM	119 nM
Cc1cc(Oc2c(C3CCC3)ccc(-c3cnc(N)cn3)c2F)ccc1S(C)(=O)=O [Example 126, 5-{4-Cyclobutyl-2-fluoro-3-[3-methyl-4-(methylsulfonyl)phenoxy]phenyl}pyrazin-2-amine]	10.7 nM	406 nM
COc1cccnc1Oc1c(C2CCC2)ccc(-c2cnc(N)cn2)c1F [Example 129, 5-{4-Cyclobutyl-2-fluoro-3-[(3-methoxypyridin-2-yl)oxy]phenyl}pyrazin-2-amine]	119 nM	281 nM
Nc1cnc(-c2ccc(C3CCC3)c(Oc3ccnc(N)n3)c2F)cn1 [Example 130, 4-[3-(5-Aminopyrazin-2-yl)-6-cyclobutyl-2-fluorophenoxy]pyrimidin-2-amine]	3.7 nM	84.1 nM
Nc1cnc(-c2ccc(C3CCC3)c(Oc3nccc(C(F)(F)F)n3)c2F)cn1 [Example 131, 5-(4-Cyclobutyl-2-fluoro-3-{[4-(trifluoromethyl)pyrimidin-2-yl]oxy}phenyl)pyrazin-2-amine]	5.6 nM	67.9 nM
CS(=O)(=O)c1ccc(Oc2c(C3CCC3)ccc(-c3cnc(N)cn3)c2F)c(C#N)c1 [Example 132, 2-[3-(5-Aminopyrazin-2-yl)-6-cyclobutyl-2-fluorophenoxy]-5-(methylsulfonyl)benzonitrile]	17 nM	133 nM
CS(=O)(=O)c1ccc(Oc2c(C3CCC3)ccc(-c3cnc(N)cn3)c2F)cc1C(F)(F)F [Example 133, 5-{4-Cyclobutyl-2-fluoro-3-[4-(methylsulfonyl)-3-(trifluoro-methyl)phenoxy]phenyl}pyrazin-2-amine]	10.2 nM	79.6 nM
Cc1nccc(Oc2c(C3CCC3)ccc(-c3cnc(N)cn3)c2F)n1 [Example 134, 5-{4-Cyclobutyl-2-fluoro-3-[(2-methylpyrimidin-4-yl)oxy]phenyl}pyrazin-2-amine]	6.2 nM	39.7 nM

SMILES	Ki (human FLAP)	IC50 [1]
Nc1cnc(-c2ccc(C3CCC3)c(Oc3cc(N)ncn3)c2F)cn1 [Example 136, 6-[3-(5-Aminopyrazin-2-yl)-6-cyclobutyl-2-fluorophenoxy]pyrimidin-4-amine]	3.5 nM	45.9 nM
Nc1cnc(-c2ccc(C3CCC3)c(Oc3ccnc(Cl)n3)c2F)cn1 [Example 137, 5-{3-[(2-Chloropyrimidin-4-yl)oxy]-4-cyclobutyl-2-fluorophenyl}pyrazin-2-amine]	3.7 nM	51 nM
Nc1cnc(-c2ccc(C3CCC3)c(Oc3cc(N4CCC4)ncn3)c2F)cn1 [Example 138, 5-{3-[(6-Azetidin-1-ylpyrimidin-4-yl)oxy]-4-cyclobutyl-2-fluorophenyl}pyrazin-2-amine trifluoroacetate salt]	5.5 nM	70.3 nM
CN(C)c1cc(Oc2c(C3CCC3)ccc(-c3cnc(N)cn3)c2F)nc(C(F)(F)F)n1 [Example 139, 6-[3-(5-Aminopyrazin-2-yl)-6-cyclobutyl-2-fluorophenoxy]-N,N-dimethyl-2-(trifluoromethyl)pyrimidin-4-amine]	3.9 nM	48.5 nM
Cc1nc(N)cc(Oc2c(C3CCC3)ccc(-c3cnc(N)cn3)c2F)n1 [Example 140, 6-[3-(5-Aminopyrazin-2-yl)-6-cyclobutyl-2-fluorophenoxy]-2-methylpyrimidin-4-amine trifluoroacetate salt]	1.3 nM	11.7 nM
Nc1cnc(-c2ccc(C3CCC3)c(Oc3cc(C4CC4)ncn3)c2F)cn1 [Example 141, 5-{4-Cyclobutyl-3-[(6-cyclopropylpyrimidin-4-yl)oxy]-2-fluorophenyl}pyrazin-2-amine]	5 nM	58.6 nM
COCc1cc(Oc2c(C3CCC3)ccc(-c3cnc(N)cn3)c2F)nc(N)n1 [Example 142, 4-[3-(5-Aminopyrazin-2-yl)-6-cyclobutyl-2-fluorophenoxy]-6-(methoxymethyl)pyrimidin-2-amine]	1.7 nM	18.5 nM
Nc1cnc(-c2ccc(C3CCC3)c(Oc3cc(Cl)nc(N)n3)c2F)cn1 [Example 143, 4-[3-(5-Aminopyrazin-2-yl)-6-cyclobutyl-2-fluorophenoxy]-6-chloropyrimidin-2-amine]	2.9 nM	37.7 nM
Nc1cnc(-c2ccc(C3CCC3)c(Oc3ccnc(-c4ccccc4)n3)c2F)cn1 [Example 144, 5-{4-Cyclobutyl-2-fluoro-3-[(2-phenylpyrimidin-4-yl)oxy]phenyl}pyrazin-2-amine]	1.1 nM	22.3 nM
Nc1cnc(-c2ccc(C3CCC3)c(Oc3cc(-c4ccccc4)ncn3)c2F)cn1 [Example 145, 5-{4-Cyclobutyl-2-fluoro-3-[(6-phenylpyrimidin-4-yl)oxy]phenyl}pyrazin-2-amine]	5.4 nM	177 nM
Nc1cnc(-c2ccc(C3CCC3)c(Oc3cc(N)nc(Cc4ccccc4)n3)c2F)cn1 [Example 146, 6-[3-(5-Aminopyrazin-2-yl)-6-cyclobutyl-2-fluorophenoxy]-2-benzylpyrimidin-4-amine]	0.4 nM	4.5 nM
CC(C)c1cc(Oc2c(C3CCC3)ccc(-c3cnc(N)cn3)c2F)ncn1 [Example 147, 5-(4-Cyclobutyl-2-fluoro-3-{[6-(1-methylethyl)pyrimidin-4-yl]oxy}phenyl)pyrazin-2-amine]	6.4 nM	185 nM
CC(C)(C)OC(=O)NCCNc1ccnc(Oc2c(C3CCC3)ccc(-c3cnc(N)cn3)c2F)n1 [Example 149, tert-Butyl [2-({2-[3-(5-aminopyrazin-2-yl)-6-cyclobutyl-2-fluorophenoxy]pyrimidin-4-yl}amino)ethyl]carbamate]	1.3 nM	112 nM
NCCNc1nccc(Oc2c(C3CCC3)ccc(-c3cnc(N)cn3)c2F)n1 [Example 150, N-{4-[3-(5-Aminopyrazin-2-yl)-6-cyclobutyl-2-fluorophenoxy]pyrimidin-2-yl}ethane-1,2-diamine]	176 nM	3590 nM
COC(=O)c1ccnc(Oc2c(C3CCC3)ccc(-c3cnc(N)cn3)c2F)n1 [Example 151, methyl 2-[3-(5-aminopyrazin-2-yl)-6-cyclobutyl-2-fluorophenoxy]pyrimidine-4-carboxylate]	8.9 nM	75.4 nM
Nc1cnc(-c2ccc(C3CCC3)c(Oc3nccc(C(=O)O)n3)c2F)cn1 [Example 152, 2-[3-(5-Aminopyrazin-2-yl)-6-cyclobutyl-2-fluorophenoxy]pyrimidine-4-carboxylic acid]	62.5 nM	> 10000 nM
Nc1cnc(-c2ccc(C3CCC3)c(Oc3ccc(C(=O)O)cc3)c2F)cn1 [Example 153, 4-[3-(5-Aminopyrazin-2-yl)-6-cyclobutyl-2-fluorophenoxy]benzoic acid]	2.3 nM	424 nM
Nc1cnc(-c2ccc(C3CCC3)c(Oc3ccc(C(=O)O)cn3)c2F)cn1 [Example 154, 6-[3-(5-Aminopyrazin-2-yl)-6-cyclobutyl-2-fluorophenoxy]pyridine-3-carboxylic acid]	12.5 nM	> 10000 nM
